US20250215030A1, “STAT MODULATORS AND USES THEREOF” (Recludix Pharma, Inc., priority 2022, published 2025)

Tests used:
[1] = biological target: T1, pSTAT6 (pY641-STAT6) (Homo sapiens, UniProt P42226); assay: MSD-pSTAT-PBMC Assay (pSTAT6, IL-4 stimulated); type: cell-based; settings: compound 3 hrs, then 1 ng/mL IL-4 for 10 min
T1 construct: host or cells: cryopreserved PBMC
T1 sequence (P42226 1-847): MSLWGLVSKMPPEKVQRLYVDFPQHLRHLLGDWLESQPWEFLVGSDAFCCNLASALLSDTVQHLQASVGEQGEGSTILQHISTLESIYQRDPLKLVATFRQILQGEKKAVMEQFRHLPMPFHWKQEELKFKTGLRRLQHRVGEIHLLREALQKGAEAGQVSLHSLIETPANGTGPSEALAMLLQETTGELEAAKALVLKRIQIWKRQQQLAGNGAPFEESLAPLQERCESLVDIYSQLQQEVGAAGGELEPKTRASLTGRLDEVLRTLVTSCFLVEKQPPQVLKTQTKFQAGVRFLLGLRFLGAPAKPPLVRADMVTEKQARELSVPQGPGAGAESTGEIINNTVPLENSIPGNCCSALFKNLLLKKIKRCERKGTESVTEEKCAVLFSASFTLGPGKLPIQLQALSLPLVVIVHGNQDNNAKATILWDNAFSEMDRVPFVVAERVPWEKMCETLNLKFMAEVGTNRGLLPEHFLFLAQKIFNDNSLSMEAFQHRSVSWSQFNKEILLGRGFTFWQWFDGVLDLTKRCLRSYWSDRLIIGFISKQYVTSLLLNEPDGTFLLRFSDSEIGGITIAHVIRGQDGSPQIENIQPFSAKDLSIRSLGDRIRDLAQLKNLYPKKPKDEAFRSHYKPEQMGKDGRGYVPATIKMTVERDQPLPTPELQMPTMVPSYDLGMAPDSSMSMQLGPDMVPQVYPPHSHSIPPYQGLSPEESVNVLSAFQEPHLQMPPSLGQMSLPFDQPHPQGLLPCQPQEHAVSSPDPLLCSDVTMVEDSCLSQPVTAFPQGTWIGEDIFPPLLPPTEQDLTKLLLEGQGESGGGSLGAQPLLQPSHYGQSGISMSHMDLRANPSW
Procedure, shortened: (§1)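 Human PBMCs (50,000 cells/well for STAT3, 25,000 for STAT6) treated with compound 3 h, then stimulated 10 min with 10 ng/mL IL-6 or 1 ng/mL IL-4. Lysate pSTAT3 (pY705) or pSTAT6 (pY641) measured by MSD sandwich electrochemiluminescence. Signal minus unstimulated, normalized to DMSO; IC50 by variable-slope nonlinear regression.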

[2] = biological target: T2, pSTAT3 (pY705-STAT3) (Homo sapiens, UniProt P40763); assay: MSD-pSTAT-PBMC Assay (pSTAT3, IL-6 stimulated); type: cell-based; settings: PBMC, compound 3 hrs, then 10 ng/mL IL-6 for 10 min; MSD pY705-STAT3; read-out: pSTAT3
T2 construct: host or cells: cryopreserved PBMC
T2 sequence (P40763 whole entry): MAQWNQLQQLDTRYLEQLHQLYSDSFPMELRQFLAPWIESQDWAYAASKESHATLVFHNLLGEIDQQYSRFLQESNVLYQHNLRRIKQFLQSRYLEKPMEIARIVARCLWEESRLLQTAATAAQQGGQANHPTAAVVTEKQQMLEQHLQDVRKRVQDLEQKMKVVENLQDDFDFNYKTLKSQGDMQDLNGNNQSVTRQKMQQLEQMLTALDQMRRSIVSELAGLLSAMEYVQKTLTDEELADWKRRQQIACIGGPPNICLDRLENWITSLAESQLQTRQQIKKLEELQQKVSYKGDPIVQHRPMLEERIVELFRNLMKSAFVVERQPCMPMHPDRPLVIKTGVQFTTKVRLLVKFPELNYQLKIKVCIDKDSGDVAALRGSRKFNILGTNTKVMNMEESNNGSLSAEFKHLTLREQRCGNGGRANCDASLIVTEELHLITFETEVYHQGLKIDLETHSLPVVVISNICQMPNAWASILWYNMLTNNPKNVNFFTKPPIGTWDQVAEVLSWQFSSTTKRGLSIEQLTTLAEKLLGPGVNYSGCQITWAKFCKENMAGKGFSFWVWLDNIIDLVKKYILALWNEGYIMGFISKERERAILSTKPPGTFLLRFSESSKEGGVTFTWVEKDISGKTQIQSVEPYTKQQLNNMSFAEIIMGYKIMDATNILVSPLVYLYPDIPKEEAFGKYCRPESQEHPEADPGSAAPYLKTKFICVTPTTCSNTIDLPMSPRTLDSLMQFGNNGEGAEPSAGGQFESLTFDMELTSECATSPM
Procedure, shortened: as §1

Compound	IC50 [1] [µM]	IC50 [2] [µM]
CC(C)(CO)C(=O)SCCOP(=O)(OCCSC(=O)C(C)(C)CO)C(F)(F)c1ccc2sc(C(=O)N[C@H]3C[C@@H]4C[C@@H]4C[C@H]4CC[C@@H](C(=O)N5CC(n6ccnc6)C5)N4C3=O)cc2c1 [Compound 137, S,S′-(((((2-(((3S,6S,7aS, 8aR,9aR)-3-(3-(1H-imidazol-1-yl)azetidine-1-carbonyl)-5-oxodecahydro-1H-cyclopropa[d]pyrrolo[1,2-a]azocin-6-yl)carbamoyl)benzo[b]thiophen-5-yl)difluoro-methyl)phosphoryl)bis (oxy))bis(ethane-2,1-diyl))bis(3-hydroxy-2,2-dimethylpro-panethioate)]	> 3	1 to 3
CCCC(=O)SCCOP(=O)(Cc1ccc2sc(C(=O)N[C@H]3C[C@@H]4C[C@@H]4C[C@H]4CC[C@@H](C(=O)N5CC(n6ccnc6)C5)N4C3=O)cc2c1)OCCSC(=O)CCC [Compound 158, S,S′-(((((2-(((3S,6S,7aS, 8aR,9aR)-3-(3-(1H-imidazol-1-yl)azetidine-1-carbonyl)-5-oxodecahydro-1H-cyclopropa[d]pyrrolo[1,2-a]azocin-6-yl)carbamoyl)benzo[b]thiophen-5-yl)methyl)phosphoryl)bis(oxy))bis(ethane-2,1-diyl)) dibutanethioate]	> 3	0.1 to 1
CC(C)(C)C(=O)OCOP(=O)(Cc1ccc2sc(C(=O)N[C@H]3C[C@H]4C[C@H]4C[C@H]4CC[C@@H](C(=O)N5CC(c6ccccn6)C5)N4C3=O)cc2c1)OCOC(=O)C(C)(C)C [Compound 155, ((((2-(((3S,6S,7aR, 8aS,9aR)-5-oxo-3-(3-(pyridin-2-yl)azetidine-1-carbonyl)decahydro-1H-cyclopropa[d]pyrrolo[1,2-a]azocin-6-yl)carbamoyl)benzo[b]thiophen-5-yl)methyl)phosphoryl)bis(oxy)) bis(methylene) bis(2,2-dimethyl-pronanoate)]	1 to 3	< 0.1
CC(C)(C)C(=O)OCOP(=O)(OCOC(=O)C(C)(C)C)C(F)(F)c1ccc2sc(C(=O)N[C@H]3C[C@H]4C[C@H]4C[C@H]4CC[C@@H](C(=O)N5CC(c6c[nH]cn6)C5)N4C3=O)cc2c1 [Compound 203, ((((2-(((3S,6S,7aR, 8aS,9aR)-3-(3-(1H-imidazol-4-yl)azetidine-1-carbonyl)-5-oxodecahydro-1H-cyclopropa [d]pyrrolo[1,2-a]azocin-6-yl)carbamoyl)benzo[b]thiophen-5-yl)difluoromethyl)phosphoryl)bis(oxy)) bis(methylene) bis(2,2-dimethyl-propanoate)]	0.1 to 1	< 0.1
CC(C)(C)C(=O)OCOP(=O)(OCOC(=O)C(C)(C)C)C(F)(F)c1ccc2sc(C(=O)N[C@H]3C[C@@H]4C[C@@H]4C[C@H]4CC[C@@H](C(=O)N5CC(N6CCOCC6)C5)N4C3=O)cc2c1 [Compound 204, (((difluoro(2-(((3S,6S,7aS, 8aR,9aR)-3-(3-morpholino-azetidine-1-carbonyl)-5-oxodecahydro-1H-cyclopropa[d]pyrrolo[1,2-a]azocin-6-yl)carbamoyl)benzo[b]thiophen-5-yl)methyl)phosphoryl)bis(oxy)) bis(methylene) bis(2,2-dimethyl-propanoate)]	0.1 to 1	< 0.1
CC(=O)N1C[C@H](NC(=O)[C@@H]2CC[C@@H]3C[C@H]4C[C@H]4C[C@H](NC(=O)c4cc5cc(C(F)(F)P(=O)(OCOC(=O)C(C)(C)C)OCOC(=O)C(C)(C)C)ccc5s4)C(=O)N32)[C@@H](O)C1 [Compound 208, ((((2-(((3S,6S,7aS, 8aR,9aR)-3-(((3S,4S)-1-acetyl-4-hydroxy-pyrrolidin-3-yl)carbamoyl) 5-oxodecahydro-1H-cyclopropa[d]pyrrolo[1,2-a]azocin-6-yl)carbamoyl)benzo[b]thiophen-5-yl)difluoromethyl)phosphoryl)bis(oxy)) bis(methylene) bis(2,2-dimethyl-propanoate)]	1 to 3	< 0.1
CC(C)(C)C(=O)SCCOP(=O)(Cc1ccc2sc(C(=O)N[C@H]3C[C@@H]4C[C@@H]4C[C@H]4CC[C@@H](C(=O)N5CC(n6ccnc6)C5)N4C3=O)cc2c1)OCCSC(=O)C(C)(C)C [Compound 151, S,S′-(((((2-(((3S,6S,7aS, 8aR,9aR)-3-(3-(1H-imidazol-1-yl)azetidine-1-carbonyl)-5-oxodecahydro-1H-cyclopropa [d]pyrrolo[1,2-a]azocin-6-yl)carbamoyl)benzo[b]thiophen-5-yl)methyl)phosphoryl)bis(oxy))bis(ethane-2,1-diyl)) bis(2,2-dimethyl-propanethioate)]	> 3	0.1 to 1
CC(C)OC(=O)[C@H](Cc1ccccc1)NP(=O)(Oc1ccccc1)C(F)(F)c1ccc2sc(C(=O)N[C@H]3C[C@@H]4C[C@@H]4C[C@H]4CC[C@@H](C(=O)N5CC(C(=O)N6CCOCC6)C5)N4C3=O)cc2c1 (stereo partly drawn) [Compound 165, isopropyl ((difluoro(2-(((3S,6S,7aS, 8aR,9aR)-3-(3-(morpholine-4-carbonyl)azetidine-1-carbonyl)-5-oxodecahydro-1H-cyclopropa[d]pyrrolo[1,2-a]azocin-6-yl)carbamoyl)benzo[b]thiophen-5-yl)methyl) (phenoxy)phosphoryl)-L-phenylalaninate]	> 3	1 to 3
CC(C)(C)C(=O)OCOP(=O)(OCOC(=O)C(C)(C)C)C(F)(F)c1ccc2sc(C(=O)N[C@H]3C[C@@H]4C[C@@H]4C[C@H]4CC[C@@H](C(=O)Nc5ccc(-c6ccccc6)cc5)N4C3=O)cc2c1 [Compound 175, ((((2-(((3S,6S,7aS, 8aR,9aR)-3-([1,1′-biphenyl]-4-ylcarbamoyl)-5-oxodecahydro-1H-cyclopropa[d]pyrrolo[1,2-a]azocin-6-yl)carbamoyl)benzo[b]thiophen-5-yl)difluoro-methyl)phosphoryl)bis(oxy)) bis(methylene) bis(2,2-dimethyl-propanoate)]	> 3	0.1 to 1
COCC(C)(C)OC(=O)OCOP(=O)(OCOC(=O)OC(C)(C)COC)C(F)(F)c1ccc2sc(C(=O)N[C@H]3C[C@@H]4C[C@@H]4C[C@H]4CC[C@@H](C(=O)N5CC(C(=O)N6CCOCC6)C5)N4C3=O)cc2c1 [Compound 161, (((difluoro(2-(((3S,6S,7aS, 8aR,9aR)-3-(3-(morpholine-4-carbonyl)azetidine-1-carbonyl)-5-oxodecahydro-1H-cyclopropa [d]pyrrolo[1,2-a]azocin-6-yl)carbamoyl)benzo[b]thiophen-5-yl)methyl)phosphoryl)bis(oxy)) bis(methylene) bis(1-methoxy-2-methylpropan-2-yl) bis(carbonate)]	> 3	< 0.1
CC(C)CC(=O)SCCOP(=O)(OCCSC(=O)CC(C)C)C(F)(F)c1ccc2sc(C(=O)N[C@H]3C[C@H]4C[C@H]4C[C@H]4CC[C@@H](C(=O)N5CC(n6ccnc6)C5)N4C3=O)cc2c1 [Compound 179, S,S′-(((((2-(((3S,6S,7aR, 8aS,9aR)-3-(3-(1H-imidazol-1-yl)azetidine-1-carbonyl)-5-oxodecahydro-1H-cyclopropa[d]pyrrolo[1,2-a]azocin-6-yl)carbamoyl)benzo[b]thiophen-5-yl)difluoromethyl)phosphoryl)bis(oxy))bis(ethane-2,1-diyl)) bis(3-methylbutane thioate)]	> 3	< 0.1
CC(C)(C)C(=O)OCOP(=O)(OCOC(=O)C(C)(C)C)[C@@H](F)c1ccc2sc(C(=O)N[C@H]3C[C@@H]4C[C@@H]4C[C@H]4CC[C@@H](C(=O)N5CC(C(=O)N6CCOCC6)C5)N4C3=O)cc2c1 (single isomer, unassigned) [Compound 182, ((((S) or (R)-fluoro(2-(((3S,6S,7aS, 8aR,9aR)-3-(3-(morpholine-4-carbonyl)azetidine-1-carbonyl)-5-oxodecahydro-1H-cyclopropa[d]pyrrolo[1,2-a]azocin-6-yl)carbamoyl)benzo[b]thiophen-5-yl)methyl)phosphoryl)bis(oxy)) bis(methylene) bis(2,2-dimethyl-propanoate)]	> 3	< 0.1
CC(C)OC(=O)[C@H](C)NP(=O)(Oc1ccccc1)C(F)(F)c1ccc2sc(C(=O)N[C@H]3C[C@@H]4C[C@@H]4C[C@H]4CC[C@@H](C(=O)N5CC(C(=O)N6CCOCC6)C5)N4C3=O)cc2c1 (stereo partly drawn) [Compound 186, isopropyl ((difluoro(2-(((3S,6S,7aS, 8aR,9aR)-3-(3-(morpholine-4-carbonyl)azetidine-1-carbonyl)-5-oxodecahydro-1H-cyclopropa[d]pyrrolo[1,2-a]azocin-6-yl)carbamoyl)benzo[b]thiophen-5-yl)methyl) (phenoxy)phosphoryl)-L-alaninate]	> 3	> 3
